From patent US7687664B2, “Carboxylic acid derivative, a salt thereof or an ester of them, and medicament comprising it” (Eisai R&D Management Co., Ltd., priority 2001, dated 2010)

Experiments:
Test in all cases: Transcriptional activity, GAL4-PPAR LBD chimera / PLAP reporter in CV-1 cells
Format in all cases: cell-based
human PPAR α = target: T1, human PPAR α (Homo sapiens, UniProt Q07869); details: GAL4-PPARα LBD, PLAP activity 24 hours after addition
T1 construct: human PPAR 167-468 (PPAR α); expressed in transfected cells; host or cells: CV-1 (ATCC CCL-70)
T1 sequence (Q07869 167-468): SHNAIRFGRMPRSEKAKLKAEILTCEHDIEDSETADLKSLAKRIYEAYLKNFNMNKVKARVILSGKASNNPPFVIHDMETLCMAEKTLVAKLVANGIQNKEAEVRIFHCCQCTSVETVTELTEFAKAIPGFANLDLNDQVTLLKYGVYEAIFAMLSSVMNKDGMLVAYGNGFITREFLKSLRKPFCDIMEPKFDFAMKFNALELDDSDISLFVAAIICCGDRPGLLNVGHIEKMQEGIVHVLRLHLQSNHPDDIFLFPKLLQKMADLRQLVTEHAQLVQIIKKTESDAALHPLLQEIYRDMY
Description: (§1) A GAL4-PPAR LBD chimera expression vector was constructed by ligating human PPAR 167-468 (PPAR α), 138-440 (NUC-1) and 174-475 (PPARγ) amino acid regions (LBD: Ligand Binding Domain) to a yeast transcriptional factor GAL4 1-147 amino acid region. As the reporter gene, PLAP (Placental Alkaline Phosphatase) was used, and this was ligated downstream of a TK promoter containing a 5-copy GAL4 DNA binding element to construct a vector. As host cells, CV-1 (ATCC CCL-70) was used. That is, CV-1 cells were spread at a density of 5×10^5 cells on a 35-mm dish and cultured in 10% FCS/DMEM for 24 hours, and using FuGENE 6 transfection reagent, the cells were co-transfected with the GAL4-PPAR LBD expression vector and GAL4 DBD-TK-PLAP expression vector. 24 hours after this transfection, the cells were spread again on a 96-well plate at a density of 1×10^4/well and further cultured for 24 hours. After 24 hours, the medium was exchanged with DMEM containing 10% FCS, which was previously treated at 65° C. for inactivating intrinsic alkaline phosphatase, and a test compound was added at an arbitrary concentration. The transcriptional activity was determined in terms of PLAP activity secreted 24 hours after addition of the compound, to calculate EC50.
(§2) The PLAP activity was determined after adding 50 μl assay buffer and 50 μl chemoluminescence substrate to 10 μl culture supernatant and incubating the mixture at room temperature for 1 hour. In this way, transcription activities with respect to PPARα, PPARβ(δ) and PPARγ could be determined.

[1] = target: T2, human PPAR β (NUC-1, PPARβ(δ)) (Homo sapiens, UniProt Q03181); details: GAL4-PPARβ(δ) (NUC-1) LBD, PLAP activity 24 hours after addition
T2 construct: 138-440 (NUC-1); expressed in transfected cells; host or cells: CV-1 (ATCC CCL-70)
T2 sequence (Q03181 138-440): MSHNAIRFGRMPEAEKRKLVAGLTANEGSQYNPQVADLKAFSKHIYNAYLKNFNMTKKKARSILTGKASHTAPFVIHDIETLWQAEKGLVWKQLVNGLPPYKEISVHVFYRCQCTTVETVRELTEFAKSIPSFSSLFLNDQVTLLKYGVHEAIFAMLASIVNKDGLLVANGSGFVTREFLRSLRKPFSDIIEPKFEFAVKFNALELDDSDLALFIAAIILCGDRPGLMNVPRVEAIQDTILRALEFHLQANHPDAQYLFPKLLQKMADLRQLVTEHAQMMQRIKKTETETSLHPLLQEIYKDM
Description: as §1, §2

human PPAR γ = target: T3, human PPAR γ (Homo sapiens, UniProt P37231); details: GAL4-PPARγ LBD, PLAP activity 24 hours after addition
T3 construct: 174-475 (PPARγ); expressed in transfected cells; host or cells: CV-1 (ATCC CCL-70)
T3 sequence (P37231 174-475 isoform P37231-2): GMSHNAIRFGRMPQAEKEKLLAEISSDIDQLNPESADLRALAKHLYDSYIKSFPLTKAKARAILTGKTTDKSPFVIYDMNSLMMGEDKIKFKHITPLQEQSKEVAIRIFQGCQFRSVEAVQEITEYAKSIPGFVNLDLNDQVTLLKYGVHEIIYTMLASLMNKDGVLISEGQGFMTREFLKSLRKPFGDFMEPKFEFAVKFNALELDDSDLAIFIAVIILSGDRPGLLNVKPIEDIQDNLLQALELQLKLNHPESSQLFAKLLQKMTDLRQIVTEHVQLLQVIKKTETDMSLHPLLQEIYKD
Description: as §1, §2

EC50 (human PPAR α) [µM] | EC50 [1] [µM] | EC50 (human PPAR γ) [µM] | Compound
0.029 |  |  | Cc1ccc(-c2ccccc2CNC(=O)c2sc(-c3ccc(Cl)cc3)nc2C)cc1C(=O)O [Example 257, 3-(2-[([2-(4-Chlorophenyl)-4-methyl-1,3-thiazol-5-yl]carbonylamino)methyl]phenyl)-6-methylbenzoic Acid]
 | 0.00048 | 1.16 | COc1ccc(-c2cccc(CC(=O)O)c2)cc1CCOc1ccc(Cl)cc1Cl [Example 263, 3-{3-[2-(2,4-Dichlorophenoxy)ethyl]-4-methoxyphenyl}phenylacetic Acid]
0.045 | 0.116 | 0.043 | COc1ccc(-c2ccc(C)c(C(=O)O)c2)cc1CNC(=O)c1ccc(Cl)cc1Cl [Example 21, 3-(3-{[(2,4-Dichlorobenzoyl)amino]methyl}-4-methoxyphenyl)-6-methylbenzoic Acid]
1.56 | 1.14 | 0.15 | COc1ccc(-c2cccc(CC(=O)O)c2)cc1OCC(O)COc1ccc(C(C)(C)C)cc1 (stereo not shown) [Ex 365, {3′-[2-Hydroxy-3-(4-t-butylphenoxy)propoxy]-4′-methoxybiphenyl-3-yl}acetic Acid]
0.003 | 0.074 | 0.7 | CCOc1ccc(-c2cccc(CC(=O)O)c2)cc1CNC(=O)OCc1ccc(CC)cc1 [Example 302, {4′-Ethoxy-3′-[(4-ethylbenzyloxycarbonylamino)methyl]-biphenyl-3-yl}acetic Acid]
0.653 | 0.102 | 1.28 | COc1ccc(-c2cccc(CC(=O)O)c2)cc1OCC#Cc1cccc(C(F)(F)F)c1 [Ex 375, {3′-[3-(3-Trifluoromethylphenyl)-2-propynyloxy]-4′-methoxybiphenyl-3-yl}acetic Acid]
0.719 | < 0.0001 | 0.654 | COc1ccc(-c2cccc(CC(=O)O)c2)cc1/C(C)=N/OCc1ccc(C(F)(F)F)cc1 [Example 361, {4′-Methoxy-3′-[1-(4-trifluoromethylbenzyloxyimino)ethyl]-biphenyl-3-yl}acetic Acid]
 |  | 0.031 | CCCOc1ccc(C(=O)NCc2cc(-c3cccc(/C=C(\CC)C(=O)O)c3)ccc2OC)c(Cl)c1 [Example 141, (E)-2-Ethyl-3-[3-(3-{[(4-propoxy-2-chlorobenzoyl)amino]methyl}-4-methoxyphenyl)phenyl]-2-propenoic Acid]
0.622 | 0.018 | 0.468 | COc1ccc(-c2cccc(CC(=O)O)c2)cc1CCOC(=O)Nc1ccc(C(F)(F)F)cc1 [Example 267, 2-[5-(3-{2-[(4-Trifluoromethylanilinocarbonyl)oxy]ethyl}-4-methoxyphenyl)-3-phenyl]acetic Acid]
0.538 | 0.00035 | 0.136 | CCCOc1ccc(-c2cc(C(=O)O)ccc2Cl)cc1CNC(=O)c1ccc(C(F)(F)F)cc1F [Example 199, 3-(3-{[(4-Trifluoromethyl-2-fluorobenzoyl)amino]methyl}-4-propoxyphenyl)-4-chlorobenzoic Acid]
0.75 | 0.0005 | 0.058 | COc1ccc(-c2cccc(CC(=O)O)c2)cc1CNC(=O)c1ccc(C(F)(F)F)cc1F [Example 220, 3-(3-{[(4-Trifluoromethyl-2-fluorobenzoyl)amino]methyl}-4-methoxyphenyl)-3-phenylacetic Acid]
1.82 | 0.16 | 1.41 | COc1ccc(-c2cccc(CC(=O)O)c2)cc1C#CCOc1ccc(C(F)(F)F)cc1 [Example 351, {4′-Methoxy-3′-[3-(4-trifluoromethylphenoxy)1-propynyl]biphenyl-3-yl}acetic Acid]
